Test results reported in ChEMBL document CHEMBL5260858, “Targeting mycobacterial membranes and membrane proteins: Progress and limitations” (Bioorg Med Chem, 2023).
Converted amounts (≈) assume the structure as drawn.

Tests used:
[1] = system: Mycobacterium tuberculosis; experiment: Antitubercular activity against Mycobacterium tuberculosis H37Rv assessed as bacterial growth inhibition incubated for 14 days by agar plate method; type: functional; conditions: 336 h, time 14 day
[2] = system: Mycobacterium tuberculosis; experiment: Antitubercular activity against Mycobacterium tuberculosis Erdman assessed as bacterial growth inhibition incubated for 14 days by agar plate method; type: functional; conditions: 336 h, time 14 day
[3] = system: Mycobacterium marinum; experiment: Antitubercular activity against Mycobacterium marinum strain M assessed as bacterial growth inhibition incubated for 14 days by agar plate method; type: functional; conditions: 336 h, time 14 day
[4] = system: Mycobacterium tuberculosis; experiment: Antitubercular activity against Mycobacterium tuberculosis H37Rv assessed as bacterial growth inhibition by REMA analysis; type: functional
[5] = system: Mycobacterium tuberculosis; experiment: In vivo antimycobacterial activity against Mycobacterium tuberculosis H37Rv infected in mouse assessed as reduction in log10 CFU at 1 to 2 times MIC and measured after 10 days; type: functional; conditions: time 10 day
[6] = system: Mycobacterium tuberculosis; experiment: Antimycobacterial activity against Mycobacterium tuberculosis H37Rv infected in THP-1 cells assessed as reduction in log10 CFU at MIC and measured after 2 to 7 days; type: functional; conditions: time 2-7 day
[7] = system: Mycobacterium tuberculosis; experiment: Antitubercular activity against Mycobacterium tuberculosis H37Rv assessed as bacterial growth inhibition incubated for 6 days by MABA analysis; type: functional; conditions: 144 h, time 6 day
[8] = system: Mycobacterium tuberculosis; experiment: Antitubercular activity against Mycobacterium tuberculosis H37Rv expressing the luxABCDE operon assessed as bacterial growth inhibition incubated for 28 hrs in aerobic condition by luminescence analysis; type: functional
[9] = system: Mycobacterium tuberculosis; experiment: Antitubercular activity against Mycobacterium tuberculosis H37Rv expressing the luxABCDE operon assessed as bacterial growth inhibition incubated for 5 days in low oxygen condition by LORA Assay; type: functional; conditions: 120 h, time 5 day
[10] = system: Mycobacterium tuberculosis; experiment: Antitubercular activity against Mycobacterium tuberculosis H37Rv expressing the luxABCDE operon infected in human THP-1 cells assessed as reduction in intracellular bacterial load incubated for 72 hrs by luminescence analysis; type: functional, organism-based; conditions: THP-1, 72 h
[11] = system: Mycobacterium tuberculosis; experiment: Antitubercular activity against Mycobacterium tuberculosis H37Rv assessed as bacterial growth inhibition incubated for 7 days by microplate alamar blue assay; type: functional; conditions: 168 h, time 7 day
[12] = system: Mycobacterium tuberculosis; experiment: Antitubercular activity against Mycobacterium tuberculosis H37Rv assessed as extracellular bacterial growth inhibition; type: functional
[13] = system: Mycobacterium tuberculosis; experiment: Antitubercular activity against Mycobacterium tuberculosis H37Rv assessed as intracellular bacterial growth inhibition; type: functional
[14] = system: Mycobacterium tuberculosis; experiment: Antitubercular activity against Mycobacterium tuberculosis Erdman assessed as bacterial growth inhibition incubated for 1 week by microplate alamar blue assay; type: functional, organism-based; conditions: 168 h
[15] = system: Mycobacterium tuberculosis; experiment: Antitubercular activity against Mycobacterium tuberculosis ATCC 27294 (H37Rv) assessed as bacterial growth inhibition by agar dilution method; type: functional
[16] = system: Mycobacterium tuberculosis; experiment: Antitubercular activity against Mycobacterium tuberculosis assessed as bacterial growth inhibition in 7H9 medium incubated for 5 days by microplate reader analysis; type: functional; conditions: 120 h, time 5 day
[17] = system: Mycobacterium tuberculosis; experiment: In vivo antimycobacterial activity against Mycobacterium tuberculosis H37Rv infected in BALB/c mouse assessed as reduction in bacterial load in lungs at 40 to 100 mg/kg, po and measured after 4 weeks; type: functional; conditions: dose 40-100 mg/kg
[18] = system: Mycobacterium tuberculosis; experiment: In vivo antimycobacterial activity against Mycobacterium tuberculosis H37Rv infected in BALB/c mouse assessed as reduction in bacterial load in spleen at 40 to 100 mg/kg, po and measured after 4 weeks; type: functional; conditions: dose 40-100 mg/kg
[19] = system: Mycobacterium tuberculosis; experiment: Antitubercular activity against Mycobacterium tuberculosis H37Rv assessed as bacterial growth inhibition; type: functional
[20] = system: Mycobacterium avium; experiment: Antitubercular activity against Mycobacterium avium assessed as bacterial growth inhibition; type: functional
[21] = system: Mycobacteroides abscessus; experiment: Antitubercular activity against Mycobacterium abscessus CIP104536 assessed as bacterial growth inhibition incubated 3 to 5 days by resazurin based broth microdilution method; type: functional; conditions: time 3-5 day
[22] = system: Mycobacteroides abscessus; experiment: Antitubercular activity against Mycobacterium abscessus 3321 assessed as bacterial growth inhibition incubated 3 to 5 days by resazurin based broth microdilution method; type: functional; conditions: time 3-5 day
[23] = system: Mycobacteroides abscessus; experiment: Antitubercular activity against Mycobacterium abscessus 2069 assessed as bacterial growth inhibition incubated 3 to 5 days by resazurin based broth microdilution method; type: functional; conditions: time 3-5 day
[24] = system: Mycobacteroides abscessus; experiment: Antitubercular activity against Mycobacterium abscessus 3022 assessed as bacterial growth inhibition incubated 3 to 5 days by resazurin based broth microdilution method; type: functional; conditions: time 3-5 day
[25] = system: Mycobacteroides abscessus; experiment: Antitubercular activity against Mycobacterium abscessus 1298 assessed as bacterial growth inhibition incubated 3 to 5 days by resazurin based broth microdilution method; type: functional; conditions: time 3-5 day
[26] = system: Mycobacteroides abscessus; experiment: Antitubercular activity against Mycobacterium abscessus 2587 assessed as bacterial growth inhibition incubated 3 to 5 days by resazurin based broth microdilution method; type: functional; conditions: time 3-5 day
[27] = system: Mycobacteroides abscessus; experiment: Antitubercular activity against Mycobacterium abscessus CF assessed as bacterial growth inhibition incubated 3 to 5 days by resazurin based broth microdilution method; type: functional; conditions: time 3-5 day
[28] = system: Mycobacteroides abscessus; experiment: Antitubercular activity against Mycobacterium abscessus 2524 assessed as bacterial growth inhibition incubated 3 to 5 days by resazurin based broth microdilution method; type: functional; conditions: time 3-5 day
[29] = system: Mycobacteroides abscessus; experiment: Antitubercular activity against Mycobacterium abscessus 2648 assessed as bacterial growth inhibition incubated 3 to 5 days by resazurin based broth microdilution method; type: functional; conditions: time 3-5 day
[30] = system: Mycobacteroides abscessus; experiment: Antitubercular activity against Mycobacterium abscessus 5175 assessed as bacterial growth inhibition incubated 3 to 5 days by resazurin based broth microdilution method; type: functional; conditions: time 3-5 day
[31] = system: Mycobacterium tuberculosis; experiment: Antitubercular activity against Mycobacterium tuberculosis H37Rv ATCC 27294 infected in african green monkey Vero cells assessed as bacterial growth inhibition incubated for 6 days by microplate alamar blue assay; type: functional; conditions: H37Rv ATCC 27294, 144 h, time 6 day
[32] = system: Mycobacterium tuberculosis; experiment: Antitubercular activity against Mycobacterium tuberculosis Erdman ATCC 35801 infected in RAW264.7 cells assessed as inhibition of intracellular bacterial growth incubated for 6 days by microplate alamar blue assay; type: functional; design: scale not given: the % may be the effect or the level left; conditions: time 6 day
[33] = Selectivity index, ratio of IC50 for cytotoxicity against African green monkey Vero cells to MIC for antitubercular activity against Mycobacterium tuberculosis H37Rv ATCC 27294; type: toxicity, cell-based; conditions: read-out: Selectivity Index
[34] = system: Mycolicibacterium smegmatis; experiment: Antitubercular activity against Mycobacterium smegmatis ATCC 607 assessed as zone of inhibition incubated 30 hrs by Kirby-Bauer disc diffusion assay; type: functional
[35] = system: Mycobacterium tuberculosis; experiment: In vivo antimycobacterial activity against Mycobacterium tuberculosis H37Rv infected in C57BL/6 mouse assessed as reduction in bacterial load in lung at 10 mg/kg, po and measured after 10 days by CFU analysis; type: functional; conditions: time 10 day
[36] = system: Mycobacterium tuberculosis; experiment: In vivo antimycobacterial activity against Mycobacterium tuberculosis H37Rv infected in C57BL/6 mouse assessed as reduction in bacterial load in lung at 30 mg/kg, po and measured after 10 days by CFU analysis; type: functional; conditions: time 10 day
[37] = system: Mycobacterium tuberculosis; experiment: In vivo antimycobacterial activity against Mycobacterium tuberculosis H37Rv infected in C57BL/6 mouse assessed as reduction in bacterial load in spleen at 10 mg/kg, po and measured after 10 days by CFU analysis; type: functional; conditions: time 10 day
[38] = system: Mycobacterium tuberculosis; experiment: In vivo antimycobacterial activity against Mycobacterium tuberculosis H37Rv infected in C57BL/6 mouse assessed as reduction in bacterial load in spleen at 30 mg/kg, po and measured after 10 days by CFU analysis; type: functional; conditions: time 10 day

## Cc1cc2oc(=O)cc(-c3cccc(N)c3)c2c(C)c1-c1ccc(CN2CCOCC2)cc1
[1]
  MIC: 0.24 µM (≈ 0.106 µg/mL)
[2]
  MIC: 0.4 µM (≈ 0.176 µg/mL)
[3]
  MIC: 0.83 µM (≈ 0.366 µg/mL)

## COc1ncnc(Cn2cnc3c(C(=O)NCCF)cccc32)c1C
[4]
  MIC: 1.56 µM (≈ 0.536 µg/mL)
[5]
  Activity: >3 log10CFU
[6]
  Activity: 1 log10CFU

## CCOC(=O)c1c(NC(=O)c2c(F)c(F)c(F)c(F)c2F)sc2c1CCN(CC)C2
[7]
  MIC: 0.69 µM (≈ 0.309 µg/mL)
[8]
  MIC: 0.23 µM (≈ 0.103 µg/mL)
[9]
  MIC: > 200 µM
[10]
  IC50: 5.6 µM

## O=c1cc(-c2ccc(O)cc2)oc2ccc(O)c(CN3CCC3)c12
[11]
  MIC: 0.45 µg/mL (≈ 1.39 µM)

## COc1ccc(OCCNC(=O)c2cc([N+](=O)[O-])cc([N+](=O)[O-])c2)cc1
[12]
  MIC: 0.2 µM (≈ 0.0723 µg/mL)
[13]
  MIC: 0.2 µM (≈ 0.0723 µg/mL)

## CCCCNc1nc(CC)nc2sc(C)cc12
[14]
  IC50: 2.7 µM

## CCOC(=O)NC(=O)c1ccsc1NC(=O)c1nc2ccccc2s1
[15]
  MIC: 0.19 µg/mL (≈ 0.506 µM)
[16]
  MIC: 0.19 µg/mL (≈ 0.506 µM)
[17]
  Activity: 2 log10CFU
[18]
  Activity: 3 log10CFU

## COc1nc2ccc(Br)cc2cc1[C@@H](c1ccccc1)[C@@](O)(CCN(C)C)c1cccc2ccccc12 [BEDAQUILINE]
[19]
  MIC: 0.03 µg/mL (≈ 0.054 µM)
[20]
  MIC: 0.01 µg/mL (≈ 0.018 µM)

## Cc1ccccc1CN1CCC(O)(c2ccc(Cl)c(C(F)(F)F)c2)CC1
[21]
  MIC: 0.125 µg/mL (≈ 0.326 µM)
[22]
  MIC: 0.125 µg/mL (≈ 0.326 µM)
[23]
  MIC: 0.125 µg/mL (≈ 0.326 µM)
[24]
  MIC: 0.125 µg/mL (≈ 0.326 µM)
[25]
  MIC: 0.125 µg/mL (≈ 0.326 µM)
[26]
  MIC: 0.125 µg/mL (≈ 0.326 µM)
[27]
  MIC: 0.125 µg/mL (≈ 0.326 µM)
[28]
  MIC: 0.125 µg/mL (≈ 0.326 µM)
[29]
  MIC: 0.125 µg/mL (≈ 0.326 µM)
[30]
  MIC: 0.125 µg/mL (≈ 0.326 µM)

## CC(C)=CCC/C(C)=C/CNCCNC1C2CC3CC(C2)CC1C3 (stereo not drawn) [SQ109]
[31]
  MIC: 0.7 µM (≈ 0.231 µg/mL)
[32]
  Activity: 99%
[33]
  selectivity ratio: 16.7

## C=CCN1C(=O)NC(=O)/C(=C/NNC(=O)c2ccncc2)C1=O
[34]
  inhibition zone (IZ): 20 mm
[35]
  Activity: 1 log10CFU
[36]
  Activity: 2.1 log10CFU
[37]
  Activity: 0.6 log10CFU
[38]
  Activity: 1.3 log10CFU
